According to ChEMBL document CHEMBL1201862, “PubChem BioAssay data set” (2004):
Calls of active or inactive are those of the source.

How the values were obtained:
H4 = assay: Luminescence Cell-Based Dose Response HTS to Identify Activators of 5'UTR Stem-Loop Driven Prion Protein mRNA Translation in H4 Neuroglioblastoma Cells. [Related pubchem assays: 1829 (Project Summary), 1814 (Primary HTS)]; assay type: functional; conditions: Homo sapiens
[1] = Luminescence Cell-Based Dose Response HTS to Identify Activators of Luciferase Translation or Activity in H4 […] Cells. [Related pubchem assays: 1829 (Project Summary), 1814 (Primary HTS)]; assay type: functional
[2] = Luminescence Cell-Based Dose Confirmation HTS to Identify Activators of 5'UTR Stem-Loop Driven Alpha-Synuclein mRNA Translation in H4 Neuroglioblastoma Cells. [Related pubchem assays: 1829 (Project Summary), 1814 (Primary HTS)]; assay type: functional
[3] = target: T1, Corticotropin-releasing factor receptor 2/Corticotropin-releasing factor-binding protein (Homo sapiens, UniProt P24387+Q13324); assay: activators of CRF receptor 2 with binding protein – uHTS hits, confirmation (AID 602473); assay type: functional; conditions: read-out: EC50_Mean
T1 sequence (Q13324 whole entry): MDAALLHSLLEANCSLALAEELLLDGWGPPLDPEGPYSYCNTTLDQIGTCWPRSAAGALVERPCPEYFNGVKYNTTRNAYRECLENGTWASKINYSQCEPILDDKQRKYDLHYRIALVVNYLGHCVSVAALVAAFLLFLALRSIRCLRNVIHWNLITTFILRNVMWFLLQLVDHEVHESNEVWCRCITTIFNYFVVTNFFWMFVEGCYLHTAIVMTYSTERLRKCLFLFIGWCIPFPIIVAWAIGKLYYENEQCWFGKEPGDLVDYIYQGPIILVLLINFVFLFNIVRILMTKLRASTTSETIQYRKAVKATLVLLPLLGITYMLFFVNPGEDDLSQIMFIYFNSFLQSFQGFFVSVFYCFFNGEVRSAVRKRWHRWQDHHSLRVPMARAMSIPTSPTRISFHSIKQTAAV
T1 sequence (P24387 whole entry): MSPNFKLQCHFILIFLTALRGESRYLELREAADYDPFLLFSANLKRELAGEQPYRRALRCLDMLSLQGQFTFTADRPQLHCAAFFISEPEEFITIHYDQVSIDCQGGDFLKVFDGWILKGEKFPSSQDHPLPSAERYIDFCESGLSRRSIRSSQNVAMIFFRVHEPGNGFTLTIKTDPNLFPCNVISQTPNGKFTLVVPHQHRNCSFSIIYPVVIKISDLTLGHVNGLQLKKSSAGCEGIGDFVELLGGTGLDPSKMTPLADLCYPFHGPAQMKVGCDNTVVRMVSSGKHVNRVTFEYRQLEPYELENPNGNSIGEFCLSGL

[4] = target: T1, Corticotropin-releasing factor receptor 2/Corticotropin-releasing factor-binding protein; assay: Dose Response confirmation of uHTS hits for small molecule antagonists of the CRF-binding protein and CRF-R2 receptor complex.; assay type: functional; conditions: read-out: IC50_Mean
H9c2 = assay: cells; assay type: functional, cell-based; conditions: Rattus norvegicus, H9c2, Myocardium;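 also: confirmatory concentration-response retest of ultra-high-throughput screening hits for modulation of myocardial damage; cell death induced by hydrogen peroxide oxidative stress; compound pretreatment for 60 min then peroxide exposure for 2 h; potency is for protecting the cells against peroxide damage rather than for killing them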
cells [5] = assay type: functional, cell-based
cells [6] = assay type: functional, cell-based; remark: listed apart in the source
[7] = viability of uninfected HEp-2 cells – cell-based, HTS, cytotoxicity control for RSV inhibitor project, dose response (AID 2410); assay type: functional; conditions: human respiratory syncytial virus
[8] = NIH-3T3 fibroblast cytotoxicity, dose response, cytotoxicity control, cell-based, fluorescence, Alamar Blue, secondary assay (AID 2327); assay type: functional;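 also: NIH-3T3 mouse fibroblasts cultured with fluconazole at 8 µg/mL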
[9] = target: T2, Zinc finger protein mex-5 (Caenorhabditis elegans, UniProt Q9XUB2); assay: potency of MEX-5 RNA-binding blockers – biochemical, C. elegans, fluorescence polarization, dose response (AID 1960)
T2 sequence (Q9XUB2 whole entry): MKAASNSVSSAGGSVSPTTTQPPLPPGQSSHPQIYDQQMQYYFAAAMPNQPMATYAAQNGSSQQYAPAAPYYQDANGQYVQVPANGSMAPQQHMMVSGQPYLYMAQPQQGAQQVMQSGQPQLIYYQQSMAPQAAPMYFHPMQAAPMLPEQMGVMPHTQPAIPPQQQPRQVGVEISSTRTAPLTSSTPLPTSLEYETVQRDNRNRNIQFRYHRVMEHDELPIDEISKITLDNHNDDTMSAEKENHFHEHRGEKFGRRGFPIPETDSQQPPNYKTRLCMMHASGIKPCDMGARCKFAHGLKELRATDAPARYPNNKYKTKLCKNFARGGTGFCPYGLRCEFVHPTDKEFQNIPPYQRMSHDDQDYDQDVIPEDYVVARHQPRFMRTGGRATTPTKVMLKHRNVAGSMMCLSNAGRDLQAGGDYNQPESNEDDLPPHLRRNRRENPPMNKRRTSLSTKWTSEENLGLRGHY

[10] = target: T3, RNA-binding protein pos-1 (Caenorhabditis elegans, UniProt G5EF15); assay: disruptors of C. elegans POS-1 RNA interaction – biochemical, fluorescence polarization, dose response (AID 1964);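 also: purified POS-1 fused to maltose binding protein made in E. coli; potency of compounds blocking POS-1 binding to fluorescent RNA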
T3 sequence (G5EF15 whole entry): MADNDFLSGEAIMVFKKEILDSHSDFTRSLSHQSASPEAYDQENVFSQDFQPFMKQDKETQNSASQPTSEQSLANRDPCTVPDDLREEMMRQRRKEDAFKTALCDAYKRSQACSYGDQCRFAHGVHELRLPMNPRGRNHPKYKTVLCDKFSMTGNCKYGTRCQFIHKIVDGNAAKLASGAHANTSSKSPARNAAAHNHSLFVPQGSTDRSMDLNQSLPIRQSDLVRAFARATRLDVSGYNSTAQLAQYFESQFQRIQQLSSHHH

[11] = viability of PTEN-deleted HCT116 cells – cell-based, HCT116 PTEN knockout, dose response (AID 1047); assay type: functional;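 also: HCT116 colon tumor cells with PTEN knocked out; cells exposed to compound for 60 hours before readout; potency for loss of cell viability measured by luminescence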
Cytochrome P450 3A4 = Cytochrome P450 3A4 (Homo sapiens, UniProt P08684);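 also: CYP3A4 tested as one member of a cytochrome P450 panel screen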
Cytochrome P450 2C19 = Cytochrome P450 2C19 (Homo sapiens, UniProt P33261); assay: Cytochrome panel assay with activity outcomes. Panel member name: p450-cyp2c19 Compounds with AC50 equal or less than 10 uM are considered active; assay type: functional; conditions: read-out: AC50
INS1 = assay: INS-1E survival protection against cytokine death – cell-based, luminescence, retest, dose response (AID 449756); assay type: functional; conditions: Rattus norvegicus;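 also: cell death triggered by IL-1 beta plus TNF-alpha plus IFN-gamma mixture; protective hits raise ATP signal compared with cytokine alone wells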

Sequence of Cytochrome P450 3A4 (P08684 whole entry): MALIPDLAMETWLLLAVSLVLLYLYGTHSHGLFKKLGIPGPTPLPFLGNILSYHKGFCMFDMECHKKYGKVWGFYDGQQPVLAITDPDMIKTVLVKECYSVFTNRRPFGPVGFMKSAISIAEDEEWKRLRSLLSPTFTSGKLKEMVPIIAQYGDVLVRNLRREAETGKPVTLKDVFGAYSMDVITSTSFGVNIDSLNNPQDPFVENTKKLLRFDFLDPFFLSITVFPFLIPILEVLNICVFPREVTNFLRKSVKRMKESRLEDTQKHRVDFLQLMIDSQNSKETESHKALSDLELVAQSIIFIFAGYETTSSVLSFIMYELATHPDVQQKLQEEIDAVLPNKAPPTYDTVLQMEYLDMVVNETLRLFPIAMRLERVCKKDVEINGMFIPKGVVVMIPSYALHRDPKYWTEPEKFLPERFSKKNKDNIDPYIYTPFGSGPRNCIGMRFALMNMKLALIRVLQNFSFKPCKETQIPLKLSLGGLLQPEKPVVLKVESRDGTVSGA
Sequence of Cytochrome P450 2C19 (P33261 whole entry): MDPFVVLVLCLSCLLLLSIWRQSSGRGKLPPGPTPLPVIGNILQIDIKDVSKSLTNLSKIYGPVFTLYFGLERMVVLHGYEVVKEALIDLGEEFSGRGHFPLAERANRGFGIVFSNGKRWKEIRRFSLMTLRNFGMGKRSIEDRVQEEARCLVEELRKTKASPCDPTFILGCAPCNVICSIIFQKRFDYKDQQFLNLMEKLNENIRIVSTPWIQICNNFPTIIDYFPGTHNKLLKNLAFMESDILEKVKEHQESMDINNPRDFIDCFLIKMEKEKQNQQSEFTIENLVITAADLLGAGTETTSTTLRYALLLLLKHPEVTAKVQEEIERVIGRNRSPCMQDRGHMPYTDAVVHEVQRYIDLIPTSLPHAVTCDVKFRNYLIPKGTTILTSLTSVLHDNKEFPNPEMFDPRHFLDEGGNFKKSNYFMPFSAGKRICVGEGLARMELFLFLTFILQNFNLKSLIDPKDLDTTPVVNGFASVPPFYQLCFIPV

O=Nc1c(-c2ccccc2)cc2ccccn12
EC50 (H4): 27.4 µM (active) | EC50 [1]: 12.1 µM (active) | EC50 [2]: 13.6 µM (active)

CC(C)COc1ccc(CN=C(S)Nc2ccccc2)cc1Cl
EC50 [3]: > 53 µM (inactive) | IC50 [4]: > 47.1 µM (inactive)

Cc1ccc(CNC(=O)CCc2nc(O)c3ccccc3n2)cc1
IC50 (H9c2): 12.5 µM (active)

O=C(Nc1ccc(Cl)cc1)NN1CC(=O)N(c2cccc(C(F)(F)F)c2)CC1=O
EC50 (cells [5]): > 350 µM (not active) | EC50 (cells [6]): > 350 µM (not active)

CC1CC(C)CN(S(=O)(=O)c2ccc3c(c2)oc(=O)n3CC(=O)NCCCOC(C)C)C1 (centres undefined)
EC50 (cells [5]): > 350 µM (not active) | EC50 (cells [6]): > 350 µM (not active)

O=C(N[C@@H](Cc1ccccc1)C(=O)OCc1ccccc1)c1[nH]cnc1C(=O)N1CCc2ccccc2C1
CC50 [7]: 26.1 µM (active)

Cc1cccc(-n2c(N)cc(=O)[nH]c2=S)c1
EC50 (H4): > 120 µM (not active) | EC50 [1]: > 120 µM (not active) | EC50 [2]: > 120 µM (not active)

COc1cc(CNc2ccc(N3CCCC3)cc2)ccc1OCc1ccccc1
CC50 [7]: 13 µM (active)

COC(=O)CNC(=O)CSc1nnc2cc(C)c3ccccc3n12
EC50 (cells [5]): > 350 µM (not active) | EC50 (cells [6]): > 350 µM (not active)

Nc1ccnn1-c1ccccc1
EC50 (cells [5]): > 350 µM (not active) | EC50 (cells [6]): > 350 µM (not active)

Cc1cnc(NC(=O)CSc2nc(O)c3ccccc3n2)s1
IC50 (H9c2): > 79 µM (inactive)

O=C(O)C1CCN(C(=O)OCc2ccccc2)CC1
EC50 (H4): 6.56 µM (active) | EC50 [1]: 87.1 µM (active) | EC50 [2]: 0.602 µM (active)

Cc1cccn2c(=O)c(C=O)c(Nc3ccc(S(N)(=O)=O)cc3)nc12
EC50 (H4): > 120 µM (not active) | EC50 [1]: 26.4 µM (active) | EC50 [2]: 14.8 µM (active)

Clc1ccc(-c2nnc(NCc3ccccc3)c3ccccc23)cc1
EC50 [3]: > 53 µM (inactive) | IC50 [4]: > 47.1 µM (inactive)

O=C(O)c1ccccc1OCCOc1ccccc1C(=O)O
EC50 (cells [5]): > 350 µM (not active) | EC50 (cells [6]): > 350 µM (not active)

O=C(CSCC(=O)N1CCCCC1)Nc1nc(-c2ccc(Cl)s2)cs1
EC50 (H4): 10.9 µM (active) | EC50 [1]: 8.35 µM (active) | EC50 [2]: 29.7 µM (active)

COc1cc(-c2cc(C(=O)N3CCN(c4ccccn4)CC3)c3ccccc3n2)cc(OC)c1OC
IC50 (H9c2): > 79 µM (inactive)

COc1ccc(CN2C(=O)NC(=O)/C(=C\NNC(=O)c3ccccc3)C2=O)cc1
EC50 [8]: 56 µM (active)

NC(=O)NC1CCCc2c1[nH]c1ccc(Cl)cc21 (centres undefined)
CC50 [7]: 18 µM (active)

Cn1c2ccccc2c2ncn(CCC3=CCCCC3)c(=O)c21
EC50 (H4): 29.8 µM (active) | EC50 [1]: 21.7 µM (active) | EC50 [2]: 24 µM (active)

O=C(C[n+]1cc(-c2ccc(F)cc2)n2c1CCC2)N1c2ccccc2Sc2ccccc21
EC50 (H4): 9.69 µM (active) | EC50 [1]: 1.06 µM (active) | EC50 [2]: 7.4 µM (active)

O=C(CCCc1ccccc1)Nc1ccccn1
EC50 (cells [5]): > 350 µM (not active) | EC50 (cells [6]): > 350 µM (not active)

CC(C)(C)C(=O)N1CCN(c2nc3ccc(Cl)cc3s2)CC1
EC50 (H4): 15.2 µM (active) | EC50 [1]: 0.244 µM (active) | EC50 [2]: 0.369 µM (active)

CN(Cc1cccc(Cl)c1)C(=O)C1CCC(=O)N(C2CC2)C1 (centres undefined)
EC50 [3]: > 53 µM (inactive) | IC50 [4]: > 47.1 µM (inactive)

Cn1c(SCC(=O)Nc2ccccc2)nnc1-c1ccc(NC(=O)CCc2ccccc2)cc1
EC50 (cells [5]): > 350 µM (not active) | EC50 (cells [6]): > 350 µM (not active)

CCN(CC)S(=O)(=O)c1ccc2c(c1)N(CC(=O)NCc1ccco1)C(=O)CO2
EC50 [3]: > 53 µM (inactive) | IC50 [4]: > 47.1 µM (inactive)

COc1ccc(C(=O)Nc2ccc3nc4n(c(=O)c3c2)CCCCC4)cc1OC
EC50 [3]: > 53 µM (inactive) | IC50 [4]: > 47.1 µM (inactive)

CCc1nn(CCCC(=O)N2CCN(c3cccc(C)c3C)CC2)c(=O)c2cc3occc3n12
CC50 [7]: 17 µM (active)

O=C(Nc1ccc(Cl)cn1)c1cccc(S(=O)(=O)N2CCCC2)c1
EC50 [3]: > 53 µM (inactive) | IC50 [4]: > 47.1 µM (inactive)

Cc1ccc(-n2nnnc2SCC(=O)Nc2sc(C)c(C)c2C#N)cc1C
EC50 (H4): > 120 µM (not active) | EC50 [1]: 15.6 µM (active) | EC50 [2]: 15.9 µM (active)

CCOC(=O)CSc1nc(O)c2ccccc2n1
IC50 (H9c2): > 79 µM (inactive)

Cc1ccc(C(=O)NCc2cccnc2)o1
EC50 [3]: > 53 µM (inactive) | IC50 [4]: > 47.1 µM (inactive)

COc1ccc2sc(NC(=O)NC(=O)c3c(Cl)cccc3Cl)nc2c1
CC50 [7]: 17.3 µM (active)

CCN(CC(=O)Nc1c(F)cccc1F)C(=O)c1ccc(S(=O)(=O)N2CCC(C)CC2)cc1
EC50 [3]: > 53 µM (inactive) | IC50 [4]: > 47.1 µM (inactive)

CC1(C)CC(=O)C2=C(C1)OC(N)=C(C#N)C2c1cc2c(cc1[N+](=O)[O-])OCO2 (centres undefined)
EC50 [3]: 5.48 µM (active) | EC50 [9]: 14.3 µM (active) | EC50 [10]: 18 µM (active)

O=C(CCN1CCCCC1)c1ccc2c(c1)OCO2
EC50 [3]: > 53 µM (inactive) | IC50 [4]: > 47.1 µM (inactive)

O=S(=O)(NC(=S)NC1CCCCC1)c1ccc(Br)cc1
EC50 [3]: > 53 µM (inactive) | IC50 [4]: > 47.1 µM (inactive)

CN(C)c1nn(C(=O)Nc2cccc(C(F)(F)F)c2)cc1-c1ccccc1
EC50 [11]: 42.1 µM (active)

O=C(NN=Cc1cccc([N+](=O)[O-])c1)c1cc(-c2cccnc2)nc2ccccc12
IC50 (H9c2): > 79 µM (inactive)

O=C(Nc1ccc2nc(N3CCOCC3)sc2c1)c1cc2ccccc2o1
IC50 (H9c2): > 79 µM (inactive)

Cc1ccc(N(C(=O)Cn2nnc(-c3ccccc3F)n2)C(C(=O)NC2CCCC2)c2ccncc2)cc1 (centres undefined)
EC50 [3]: > 53 µM (inactive) | IC50 [4]: > 47.1 µM (inactive)

Cc1cc(NC(=O)C(C)C)ncc1NC(=O)CCc1ccccc1
EC50 [3]: > 53 µM (inactive)

COc1cc(/C=N/NC(=O)NC23CC4CC(CC(C4)C2)C3)ccc1OCC(N)=O
IC50 (H9c2): > 79 µM (inactive)

O=C1NC(=O)N(CCNc2ncc(C(F)(F)F)cc2Cl)C(=O)C1/C=N/OCc1c(F)cccc1Cl (centres undefined)
EC50 [3]: > 53 µM (inactive) | IC50 [4]: > 47.1 µM (inactive) | AC50 (Cytochrome P450 3A4): 3.16 µM (inconclusive) | AC50 (Cytochrome P450 2C19): 8.91 µM (inconclusive)

CCn1c(O)c(/C=N/N=C2CCCCC2)c2cc(C3=NNC(=O)CC3)ccc21
IC50 (H9c2): > 79 µM (inactive)

O=C(N/N=C/c1ccccc1O)/C(=C/c1ccccc1)CCO
AC50 (INS1): 2.57 µM (active) | EC50 (cells [5]): > 350 µM (not active) | EC50 (cells [6]): 50.4 µM (active)
